According to patent EP1071665B1, “SUBSTITUTED INDOLINONES HAVING AN INHIBITING EFFECT ON KINASES AND CYCLINE/CDK COMPLEXES” (Boehringer Ingelheim Pharma GmbH & Co.KG, priority 1998, dated 1999):

The compounds below were run on Leiomyosarcoma Tumorzell-Linie SK-UT-1B (assay: Test 2: inhibition of proliferation of cultured human tumour cells (14C-thymidine incorporation)). Details: Skut1B, SK-UT-1B cells, 48 h incubation with compound, then a further 24 h with 14C-thymidine, measured in duplicate, read-out: Hemmung der SKUT-1B-Proliferation IC50.
Type: cell-based
Excerpt: Inhibierung der Profileration von kultivierten humanen Tumorzellen
Zellen der Leiomyosarcoma Tumorzell-Linie SK-UT-1B (erhalten von der American Type Culture Collection (ATCC)) wurden in Minimum Essential Medium mit nicht essentiellen Aminosäuren (Gibco), ergänzt mit Natrium-Pyruvat (1 mMol), Glutamin (2 mMol) und 10% fötalem Rinderserum (Gibco) kultiviert und in der log-Wachstumsphase geerntet. Anschließend wurden die SK-UT-1B-Zellen in Cytostar® multi-well Platten (Amersham) mit einer Dichte von 4000 cells per well eingebracht und über Nacht in einem Inkubator inkubiert. Verschiedene Konzentrationen der Verbindungen (gelöst in DMSO; Endkonzentration: <1%) wurden zu den Zellen zugegeben. Nach 48 Stunden Inkubation wurde ^14C-Thymidin (Amersham) zu jedem well zugesetzt, und es wurde weitere 24 Stunden inkubiert. Die Menge an ^14C-Thymidin, die in Gegenwart des Inhibitors in die Tumorzellen eingebaut wurde und die die Zahl der Zellen in der S-Phase repräsentiert, wurde in einem Wallace 1450 Microbeta Flüssig Scintillations Zähler gemessen. IC50-Werte für die Inhibierung der Proliferation (= Inhibierung von eingebautem ^14C-Thymidin) wurden - unter Korrektur für die Hintergrundstrahlung - berechnet. Alle Messungen wurden zweifach ausgeführt.

Row | SMILES | IC50 [nM]
1 | CCCCNCc1ccc(N/C(=C2\C(=O)Nc3ccc(C(N)=O)cc32)c2ccccc2)cc1 [4(120), 3-2-[1-(4-(N-Butyl-aminomethyl)-phenylamino)-1-phenylmethylen]-5-amido-2-indolinon-trifluoracetat] | 40
2 | NC(=O)c1ccc2c(c1)/C(=C(/Nc1ccc(CN3CCCCC3)cc1)c1ccccc1)C(=O)N2 [Beispiel 4(53), 3-Z-[1-(4-Piperidinomethyl-phenylamino)-1-phenyl-methylen] -5-amido-2-indolinon-trifluoracetat] | 10
3 | NC(=O)c1ccc2c(c1)/C(=C(/Nc1ccccc1)c1ccccc1)C(=O)N2 [Beispiel 4(2), 3-Z-(1-Phenylamino-1-phenyl-methylen)-5-amido-2-indolinon] | 170
4 | NC(=O)c1ccc2c(c1)/C(=C(/Nc1ccc(CNCc3ccccc3)cc1)c1ccccc1)C(=O)N2 [4(122), 3-Z-[1-(4-(N-(Phenyl-methyl)-aminomethyl)-phenylamino)-1-phenyl-methylen]-5-amido-2-indolinon-trifluoracetat] | 40
5 | NC(=O)c1ccc2c(c1)/C(=C(/Nc1ccc(CN3CCCCCC3)cc1)c1ccccc1)C(=O)N2 [Beispiel 4(54), 3-Z-[1-(4-Hexamethyleniminomethyl-phenylamino)-1-phenylmethylen]-5-amido-2-indolinon-trifluoracetat] | 30
6 | CCN(CC)CCCOc1ccc(N/C(=C2\C(=O)Nc3ccc(C(N)=O)cc32)c2ccccc2)cc1 [4(129), 3-Z-[1-(4-(3-Diethylamino-propoxy)-phenylamino)-1-phenylmethylen] -5-amido-2-indolinon-trifluoracetat] | 40
7 | NC(=O)c1ccc2c(c1)/C(=C(/Nc1ccc(Br)cc1)c1ccccc1)C(=O)N2 [Beispiel 4(14), 3-Z-[1-(4-Brom-phenylamino)-1-phenyl-methylen]-5-amido-2-indolinon] | 180

Second part, the compound after the results:

Row | IC50 [nM] | SMILES
8 | 30 | CN(Cc1ccccc1)Cc1ccc(N/C(=C2\C(=O)Nc3ccc(C(N)=O)cc32)c2ccccc2)cc1 [Beispiel 4(94), 3-Z-[1-(4-(N-Methyl-N-benzyl-amino-methyl)-phenylamino)-1-phenyl-methylen]-5-amido-2-indolinon-trifluoracetat]
9 | 30 | NC(=O)c1ccc2c(c1)/C(=C(/Nc1ccc(CN3CCC(Cc4ccccc4)CC3)cc1)c1ccccc1)C(=O)N2 [Beispiel 4(60), 3-Z-[1-(4-(4-Benzyl-piperidinomethyl)-phenylamino)-1-phenyl-methylen]-5-amido-2-indolinon]
10 | 50 | CN(C)Cc1ccc(N/C(=C2\C(=O)Nc3ccc(C(N)=O)cc32)c2ccccc2)cc1 [Beispiel 4(62), 3-Z-[1-(4-Dimethylaminomethyl-phenylamino)-1-phenyl-methylen]-5-amido-2-indolinon]
